Reference: ChEMBL document CHEMBL1201862, “PubChem BioAssay data set” (2004)
Activity calls are given as the source filed them.

Key:
Saccharomyces cerevisiae = assay: NALP1 inhibitor project selectivity study, Caspase-1/ASC signal blockade IC50 in S. cerevisiae (AID 488863); format: functional, organism-based
ORF 73 = ORF 73 (Human herpesvirus 8, UniProt O40947); assay: inhibitors of C-LANA binding to LBS DNA, dose response, biochemical, fluorescence polarization, cherry-picked samples (AID 504725); parameters: species or system Human gammaherpesvirus 8;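 note: fluorescence polarization of a labeled DNA duplex reporting LANA DNA binding; potency is for inhibitors that block LANA binding to the DNA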
Troponin, cardiac muscle = Troponin, cardiac muscle (Homo sapiens, UniProt P19429+P45379+P63316); assay: Fluorescence-based biochemical high throughput dose response assay for activators of the calcium sensitivity of cardiac Regulated Thin Filaments (RTF). [Related pubchem assays (depositor defined):AID493008, AID493018, AID504382, AID504383]; format: protein-complex assay
[1] = molecular target: T1, Replicative DNA helicase DnaB (Mycobacterium tuberculosis, UniProt P9WMR3); assay: DnaB intein splicing inhibitors, dose response, biochemical, cell-free fluorescence (AID 449749); format: functional
T1 sequence (P9WMR3 whole entry): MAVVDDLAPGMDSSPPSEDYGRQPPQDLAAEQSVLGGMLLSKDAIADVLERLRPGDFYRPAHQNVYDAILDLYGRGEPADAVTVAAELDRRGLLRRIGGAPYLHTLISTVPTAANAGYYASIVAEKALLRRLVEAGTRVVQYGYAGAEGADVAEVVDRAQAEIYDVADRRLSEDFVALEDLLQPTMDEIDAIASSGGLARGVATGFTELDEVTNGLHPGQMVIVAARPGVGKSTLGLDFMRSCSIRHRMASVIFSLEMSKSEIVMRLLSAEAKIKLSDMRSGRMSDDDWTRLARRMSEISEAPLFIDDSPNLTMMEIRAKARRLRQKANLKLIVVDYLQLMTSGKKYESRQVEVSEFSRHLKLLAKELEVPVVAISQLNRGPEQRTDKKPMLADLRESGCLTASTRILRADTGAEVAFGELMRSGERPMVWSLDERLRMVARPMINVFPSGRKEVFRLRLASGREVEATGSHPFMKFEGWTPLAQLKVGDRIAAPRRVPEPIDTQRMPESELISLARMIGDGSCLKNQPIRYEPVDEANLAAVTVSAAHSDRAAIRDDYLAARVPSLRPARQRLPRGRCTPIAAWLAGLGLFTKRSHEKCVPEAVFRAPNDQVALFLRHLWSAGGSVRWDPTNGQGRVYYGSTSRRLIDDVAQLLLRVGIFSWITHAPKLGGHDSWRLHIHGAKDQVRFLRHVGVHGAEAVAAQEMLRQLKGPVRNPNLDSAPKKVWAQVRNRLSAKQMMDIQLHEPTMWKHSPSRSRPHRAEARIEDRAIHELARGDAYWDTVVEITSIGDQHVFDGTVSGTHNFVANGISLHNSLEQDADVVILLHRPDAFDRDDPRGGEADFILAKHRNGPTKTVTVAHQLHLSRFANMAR

Keap1/Nrf2 = Keap1/Nrf2 (Homo sapiens, UniProt Q14145); assay: Keap1-Nrf2 protein-protein interaction inhibitors, dose response, biochemical, fluorescence polarization, cherry-picked samples (AID 588683)
[2] = molecular target: Tyrosine-protein kinase JAK2 (Homo sapiens, UniProt O60674); format: functional;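 note: JAK2 tested as one member of a kinase panel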
[3] = molecular target: Tyrosine-protein kinase Lck (Homo sapiens, UniProt P06239); format: functional;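 note: lck was assayed as one member of a kinase panel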
[4] = molecular target: Mitogen-activated protein kinase 8 (Homo sapiens, UniProt P45983); format: functional;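 note: value comes from one member of a kinome-wide kinase profiling panel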
[5] = molecular target: Mitogen-activated protein kinase 9 (Homo sapiens, UniProt P45984); format: functional;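 note: value from a kinome panel profiling assay, MAPK9 panel entry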
LIM domain kinase 1 = LIM domain kinase 1 (Homo sapiens, UniProt P53667); assay: Navigating the Kinome. Panel member name: LIMK1; format: functional
[6] = molecular target: Platelet-derived growth factor receptor beta (Homo sapiens, UniProt P09619); format: functional;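 note: value comes from a kinome panel, with PDGFRB tested as one panel member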
[7] = molecular target: Serine/threonine-protein kinase Chk1 (Homo sapiens, UniProt O14757); format: functional;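 note: measured as one member of a kinome-wide kinase profiling panel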
[8] = molecular target: Tyrosine-protein kinase ABL1 (Homo sapiens, UniProt P00519); format: functional
Aurora kinase B = Aurora kinase B (Homo sapiens, UniProt Q96GD4); format: functional
[9] = molecular target: T2, Serine/threonine-protein kinase Nek2 (Homo sapiens, UniProt P51955); format: functional
T2 sequence (P51955 whole entry): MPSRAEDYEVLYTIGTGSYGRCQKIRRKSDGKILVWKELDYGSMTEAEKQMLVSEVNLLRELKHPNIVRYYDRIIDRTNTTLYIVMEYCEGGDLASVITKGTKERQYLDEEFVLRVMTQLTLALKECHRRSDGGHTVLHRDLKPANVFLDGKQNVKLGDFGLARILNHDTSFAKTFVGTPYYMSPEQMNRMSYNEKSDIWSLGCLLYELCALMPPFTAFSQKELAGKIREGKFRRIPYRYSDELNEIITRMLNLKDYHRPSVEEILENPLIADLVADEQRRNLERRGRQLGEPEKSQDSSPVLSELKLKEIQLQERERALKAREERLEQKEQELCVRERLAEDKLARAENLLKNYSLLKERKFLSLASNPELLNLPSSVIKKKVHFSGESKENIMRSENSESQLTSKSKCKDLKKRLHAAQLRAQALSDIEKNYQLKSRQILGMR

[10] = molecular target: Vascular endothelial growth factor receptor 1 (Homo sapiens, UniProt P17948); format: functional;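 note: measured within a kinome-wide profiling panel, FLT1 as the panel member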
[11] = molecular target: Mitogen-activated protein kinase 14 (Homo sapiens, UniProt Q16539); format: functional;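 note: part of a kinome-wide panel, MAPK14 entry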
[12] = molecular target: Cyclin-dependent kinase 2 (Homo sapiens, UniProt P24941); format: functional;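 note: CDK2 measured as one member of a broad kinome profiling panel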
[13] = molecular target: Cell division cycle 7-related protein kinase (Homo sapiens, UniProt O00311); format: functional;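 note: value obtained from a kinome-wide kinase panel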
[14] = molecular target: Calcium/calmodulin-dependent protein kinase type II subunit delta (Homo sapiens, UniProt Q13557); format: functional
[15] = molecular target: Casein kinase I isoform alpha (Homo sapiens, UniProt P48729); format: functional
[16] = molecular target: Maternal embryonic leucine zipper kinase (Homo sapiens, UniProt Q14680); format: functional
[17] = molecular target: Serine/threonine-protein kinase 3 (Homo sapiens, UniProt Q13188); format: functional;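 note: measured as one member of a kinome-wide kinase panel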
Cytochrome P450 2C19 = Cytochrome P450 2C19 (Homo sapiens, UniProt P33261); assay: Cytochrome panel assay with activity outcomes. Panel member name: p450-cyp2c19 Compounds with AC50 equal or less than 10 uM are considered active; format: functional; details: read-out: AC50
[18] = molecular target: Tyrosine-protein kinase HCK (Homo sapiens, UniProt P08631); assay: Navigating the Kinome. Panel member name: HCK; format: functional

c1ccc2nc3cc4[nH]cnc4cc3nc2c1
IC50 (Saccharomyces cerevisiae): 32.7 µM (active)
AC50 (ORF 73): 7.45 µM (active)
EC50 (Troponin, cardiac muscle): 5.37 µM (active)
AC50 [1]: 19.5 µM (active)
AC50 (Keap1/Nrf2): 10.4 µM (active)

COc1cccc(C(C)NC(=O)c2sc(-c3ccncc3)nc2C)c1 (stereo not drawn)
Ki [2]: > 2.51 µM (inactive)
Ki [3]: > 6.31 µM (inactive)
Ki [4]: > 5.01 µM (inactive)
Ki [5]: > 3.98 µM (inactive)
Ki (LIM domain kinase 1): > 3.16 µM (inactive)
Ki [6]: > 2 µM (inactive)
Ki [7]: > 3.16 µM (inactive)
Ki [8]: > 2.51 µM (inactive)
Ki (Aurora kinase B): > 3.98 µM (inactive)
Ki [9]: > 3.16 µM (inactive)
Ki [10]: > 3.98 µM (inactive)
Ki [11]: > 3.98 µM (inactive)

CCCCC(=O)Nc1cc(-c2c[nH]c3ncccc23)cc(Cl)n1
Ki [2]: > 2.51 µM (inactive)
Ki [12]: > 3.16 µM (inactive)
Ki [4]: > 5.01 µM (inactive)
Ki [13]: 0.000501 µM (active)
Ki [14]: > 3.16 µM (inactive)
Ki [15]: 0.794 µM (active)
Ki [5]: > 3.98 µM (inactive)
Ki [16]: > 2 µM (inactive)
Ki [10]: > 3.98 µM (inactive)
Ki [11]: > 3.98 µM (inactive)
Ki [17]: > 3.16 µM (inactive)

Oc1ccc(-c2nc(-c3ccncc3)c(-c3ccc(F)cc3)[nH]2)cc1 [SB-202190]
AC50 (Cytochrome P450 2C19): 10 µM (inconclusive)
Ki [2]: > 2.51 µM (inactive)
Ki [18]: > 3.16 µM (inactive)
Ki [3]: > 5.01 µM (inactive)
Ki [4]: 0.501 µM (active)
Ki [15]: 1 µM (active)
Ki (LIM domain kinase 1): > 3.16 µM (inactive)
Ki [6]: > 2 µM (inactive)
Ki [7]: > 3.16 µM (inactive)
Ki [8]: > 2.51 µM (inactive)
Ki [16]: > 2 µM (inactive)
Ki (Aurora kinase B): > 3.98 µM (inactive)
Ki [9]: > 3.16 µM (inactive)
Ki [10]: > 3.98 µM (inactive)
Ki [17]: > 2.51 µM (inactive)
